Patent US5900436A, “Substituted indanylidineacetylguanidines, processes for their preparation, their use as medicaments or diagnostics and medicaments containing them” (priority 1996, dated 1999)

Legend:
Na^+ /H^+ exchanger = molecular target: T1, Na^+ /H^+ exchanger (Oryctolagus cuniculus, UniProt P23791); test: Sodium-Proton exchange inhibition in rabbit erythrocytes; assay type: cell-based, rabbit (Albino rabbits of New Zealand strain); conditions: concentration necessary to reduce the erythrocyte sodium content to 50%; erythrocytes of rabbits fed 2% cholesterol diet six weeks; 37° C., 1 hour, hyperosmolar sucrose buffer with ouabain
T1 construct: increase the exchanger activity in the rabbit erythrocytes; endogenous in cells; host or cells: erythrocytes in blood of cholesterol-fed New Zealand albino rabbits
T1 sequence (P23791 whole entry): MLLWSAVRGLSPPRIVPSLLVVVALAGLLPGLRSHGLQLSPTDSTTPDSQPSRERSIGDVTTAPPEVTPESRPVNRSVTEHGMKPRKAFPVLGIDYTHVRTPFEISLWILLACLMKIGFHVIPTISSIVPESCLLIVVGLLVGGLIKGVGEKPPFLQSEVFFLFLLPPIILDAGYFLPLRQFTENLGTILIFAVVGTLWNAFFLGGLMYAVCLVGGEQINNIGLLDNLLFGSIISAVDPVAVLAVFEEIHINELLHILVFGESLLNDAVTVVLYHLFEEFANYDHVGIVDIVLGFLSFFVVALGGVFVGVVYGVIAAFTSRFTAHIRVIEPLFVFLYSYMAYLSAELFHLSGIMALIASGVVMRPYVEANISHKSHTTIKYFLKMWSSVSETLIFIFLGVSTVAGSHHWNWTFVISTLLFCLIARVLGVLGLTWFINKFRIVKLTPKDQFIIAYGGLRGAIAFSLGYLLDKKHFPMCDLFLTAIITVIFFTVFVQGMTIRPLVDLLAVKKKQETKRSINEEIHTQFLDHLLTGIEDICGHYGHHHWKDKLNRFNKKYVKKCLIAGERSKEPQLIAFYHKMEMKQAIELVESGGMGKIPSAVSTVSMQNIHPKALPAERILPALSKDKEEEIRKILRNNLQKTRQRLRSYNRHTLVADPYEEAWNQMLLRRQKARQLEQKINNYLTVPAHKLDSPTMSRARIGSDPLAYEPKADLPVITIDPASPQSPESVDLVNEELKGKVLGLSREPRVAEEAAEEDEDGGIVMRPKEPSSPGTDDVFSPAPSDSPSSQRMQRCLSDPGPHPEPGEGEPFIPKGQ
Description: Sodium -Proton exchange inhibition in rabbit erythrocytes:
Albino rabbits of New Zealand strain were fed with 2% cholesterol diet for six weeks prior to collecting blood for the determination of Na^+ /H^+ exchanger activity in the erythrocytes. Hypercholesteremia has been reported to increase the exchanger activity in the rabbit erythrocytes (Scholz et al, 1990; Arteriosklerose-Neue Aspekte aus Zellbiologie und Molekulargenetik, Epidemiologie und Klinik; Assmann, G. et al, Eds, Braunschweig, Wiesbaden, Vieweg, 296-302 ). Blood samples were collected from the ear vein and hematocrit was determined. About […] of blood was incubated at 37° C. for 1 hour with hyperosmolar sucrose buffer containing 0.1 mmoles Ouabain in the presence and absence of test sample. After the incubation period, the reaction was stopped by addition of 5 ml of ice cold MgCl2 solution containing 0.1 mmole Ouabain. The erythrocytes were washed three times with 5 ml quantities of MgCl2 solution. They were hemolyzed by the addition of 4 ml of distilled water and the sodium content of the hemolyzate was determined by flame-photometry. The activity of the test compound was determined by its ability to reduce the sodium content of the erythrocyte and was expressed as IC50 which is the concentration necessary to reduce the erythrocyte sodium content to 50%.

[1] = Circulation 79, 1257-1263 (1989); cited from earlier work
rat hearts = conditions: isolated rat hearts, cited from earlier work

IC50 (Na^+ /H^+ exchanger)	Compound	other results
700 nM	Cc1cccc2c1CCC2=CC(=O)N=C(N)N [Compound No. 4, 4-methyl-1-indanylidineacetyl-guanidine-methanesulfonic acid]	–
–	N=C(N)NC(=O)c1nc(Cl)c(N)nc1N [amiloride]	antiarrhythmic effect [1]: only slight; suppression of artificially induced ventricular fibrillation (rat hearts; Eur. Heart J. 9 {supplement 1}: 167 (1988)): suppress an artificially induced ventricular fibrillation completely
660 nM	COc1ccc2c(c1)C(=CC(=O)N=C(N)N)CC2 [compound 6]	–
450 nM	Cc1ccc2c(c1)CCC2=CC(=O)N=C(N)N [compound 7]	–
–	CCN(c1nc(N)c(C(=O)N=C(N)N)nc1Cl)C(C)C [ethylisopropylamiloride]	potency relative to amiloride against artificially induced ventricular fibrillation (rat hearts): even more potent than amiloride
